From patent publication US11634388B2 (Chengdu Easton Biopharmaceuticals Co., Ltd., priority 2018, dated 2023)
Counter-ions that a name gives are not always drawn.

Columns and labels:
[1] = prior art WO2018164436; cited from earlier work
[2] = Determination of the dissolution rate (500 ml medium, 37° C., 50 r/min, HPLC); assay type: physicochemical
Procedure: (50 r/min). At 5 min, 10 min, 15 min, 20 min, 30 min, 45 min and 60 min, the concentrations of lenvatinib in the medium were determined by using high performance liquid chromatography.

[3] = Stability study of crystal form (XRPD before and after placement); assay type: physicochemical
[4] = Pharmacokinetic study in rats; assay type: in vivo; conditions: male, rat, plasma, po; SD rats, intragastric 10 mg/kg, suspension in oil, mean ± SD
Procedure: About 20 mg of the test drug was taken, added into 8 mL of vegetable oil and shaken well, to prepare a 2.5 mg/mL suspension.
6 SD rats, all males, 200-220 g, provided by Chengdu Dashuo Biotechnology Co., Ltd.
The rats were intragastrically administrated with 10 mg/kg of the drug. Before administration and at 5 min, 15 min, 30 min, 1 h, 2 h, 4 h, 6 h, 8 h, 24 h after administration, 0.2 mL of jugular blood was taken and placed in EDTA-K2 anticoagulant tube, centrifuged for 10 min at 3000 r/min. The plasma was separated and frozen in the refrigerator at −80° C. After all blood collections were completed, the blood drug concentration in each blood sample was analyzed and determined autonomously, and the parameters of the test drugs (Tmax, time to maximum plasma concentration; Cmax, maximum plasma concentration; AUClast) were calculated.

[5] = pH 1.0 medium (hydrochloric acid), 5 min
[6] = pH 6.8 medium (potassium dihydrogen phosphate buffer), 5 min

| Structure (SMILES) | concentration of lenvatinib in the medium [2, 5] [µg/mL] | concentration of lenvatinib in the medium ([2]; pH 1.0 medium, 10 min) [µg/mL] | concentration of lenvatinib in the medium ([2]; pH 1.0 medium, 15 min) [µg/mL] | concentration of lenvatinib in the medium ([2]; pH 1.0 medium, 20 min) [µg/mL] | concentration of lenvatinib in the medium ([2]; pH 1.0 medium, 30 min) [µg/mL] | concentration of lenvatinib in the medium ([2]; pH 1.0 medium, 45 min) [µg/mL] | concentration of lenvatinib in the medium ([2]; pH 1.0 medium, 60 min) [µg/mL] | concentration of lenvatinib in the medium [2, 6] [µg/mL] | concentration of lenvatinib in the medium ([2]; pH 6.8 medium, 10 min) [µg/mL] | concentration of lenvatinib in the medium ([2]; pH 6.8 medium, 15 min) [µg/mL] | concentration of lenvatinib in the medium ([2]; pH 6.8 medium, 20 min) [µg/mL] | concentration of lenvatinib in the medium ([2]; pH 6.8 medium, 30 min) [µg/mL] | concentration of lenvatinib in the medium ([2]; pH 6.8 medium, 45 min) [µg/mL] | concentration of lenvatinib in the medium ([2]; pH 6.8 medium, 60 min) [µg/mL] | also measured |
| --- | --- | --- | --- | --- | --- | --- | --- | --- | --- | --- | --- | --- | --- | --- | --- |
| COc1cc2nccc(Oc3ccc(NC(=O)NC4CC4)c(Cl)c3)c2cc1C(N)=O [crystal form M, lenvatinib mesylate] | – | – | – | – | – | – | – | – | – | – | – | – | – | – | solubility [1]: not evidently improved |
| COc1cc2nccc(Oc3ccc(NC(=O)NC4CC4)c(Cl)c3)c2cc1C(N)=O [Crystal form C, lenvatinib mesylate, reference compound] | 410 | 470 | 520 | 550 | 610 | 670 | 720 | 2.7 | 3 | 3.1 | 3.2 | 3.3 | 3.4 | 3.5 | – |
| COc1cc2nccc(Oc3ccc(NC(=O)NC4CC4)c(Cl)c3)c2cc1C(N)=O [Crystal form X, lenvatinib mesylate] | 1480 | 1540 | 1540 | 1520 | 1560 | 1570 | 1600 | 3.6 | 3.8 | 3.9 | 3.9 | 3.9 | 3.9 | 4 | crystal transformation before and after the stability tests ([3]; all conditions of Table 4): did not undergo crystal transformation; Result of crystal form (XRPD) ([3]; high humidity 25° C., RH 93.5%, 1 month): No obvious change; Result of crystal form (XRPD) ([3]; high humidity 25° C., RH 93.5%, 7 days): No obvious change; Result of crystal form (XRPD) ([3]; strong light illumination, 7 days): No obvious change; Result of crystal form (XRPD) ([3]; temperature 2~8° C., 10 days): No obvious change; AUC(0-t) [4]: 90900 ± 19600 ng·h/mL; Cmax [4]: 9.87 µg/mL; Tmax [4]: 1.17 ± 0.41 h |
